Reference: patent publication US9480675B2, “Method for increasing muscle growth by blocking sirtuin activity” (THE REGENTS OF THE UNIVERSITY OF CALIFORNIA, priority 2013, dated 2016)

Test system: wild type mice
Assay: 14 days of overload (synergist ablation of GTN and SOL) with daily injection of SIRT1 inhibitor; plantaris muscle hypertrophy
Assay type: in vivo
Source text: The plantaris (PLN) muscle in test subjects was overloaded by removal of the gastrocnemius (GTN) and soleus (SOL) muscles, termed synergist ablation. Briefly, test animals were anaesthetized and the area above the incision shaved and sterilized. The SOL and GTN were isolated and severed at the Achilles tendon. The complete SOL and the distal two thirds of the GTN were removed leaving the PLN muscle and their blood and nerve supply intact. The overlying skin was sutured with 6-0 vicryl and the animal was then given the analgesic and moved to a temperature-controlled environment to recover. […] Animals were monitored on a daily basis for signs of pain or post-operative infection. […] On the day of collection, animals were anaesthetized and overloaded and contralateral control muscles were rapidly removed, rinsed in PBS, all connective/scar tissue was removed using a dissection microscope, then the muscles were snap frozen in liquid nitrogen, and stored at −80° C. until processed.
To determine whether the effect of SIRT1 on overload-induced muscle hypertrophy required genetic ablation or whether pharmacological ablation of SIRT1 activity could mimic the effect of the knockout, GTN and SOL muscles of wild type mice were removed and half of the mice received daily injections of the SIRT1 inhibitor Splitomycin. There were 14 days of overload performed in wild type mice concurrent with daily injection of either saline (CON) or Splitomycin (Split).

## O=C1CCc2c(ccc3ccccc23)O1 [Splitomycin]
25 mg/kg body weight per day
  effectiveness of therapeutic dose (in words): effective
14 days of daily injection
  effect on basal muscle mass: without affecting basal muscle mass
Wild type mice, 14 days of overload, daily injection, saline (CON) vs Splitomycin (Split), FIG. 6
  effect on muscle hypertrophy (in words): increases muscle hypertrophy
Wild type mice, 14 days of overload, daily injection, versus saline/vehicle (FIG. 6)
  more muscle hypertrophy than vehicle (saline) injection: 65%
